Measurements reported in patent US7718659B2, “Heteroarylacetamide inhibitors of factor Xa” (priority 2004, dated 2010).

Target: human factor Xa (Homo sapiens, UniProt P00742)
Assay: biochemical
Settings: human factor Xa 3 nM, chromogenic substrate S-2222, HNPT buffer pH 7.8, room temperature; apparent Ki calculated from IC50 according to Cheng and Prusoff
Experimental: Factor Xa activity was measured spectrophotometrically in microtiter plates in a final volume of 150 μl using the following conditions: Inhibition of human factor Xa (Enzyme Research Laboratories) was tested at an enzyme concentration of 3 nM using the chromogenic substrate S-2222 (Chromogenix AB, Mölndal, Sweden) at 200 nM. The reaction kinetics of the enzyme and the substrate were linear with both time and the enzyme concentration. The inhibitors were dissolved in DMSO and tested at various concentrations up to 100 μM. The inhibitors were diluted using HNPT buffer consisting of HEPES 100 mM, NaCl 140 mM, PEG 6000 0.1% and Tween 80 0.02%, pH 7.8. […]
The velocity of the reaction was determined by the autoreader from the slope of the linear regression fit to 7 time points (1 minute). The initial velocity for each inhibitor concentration was determined by the slope of at least 4 time points in the linear phase by a linear regression fit (mOD/min^2). Apparent dissociation constants Ki were calculated according to Cheng and Prusoff [Cheng, Y. C.; Prusoff, W. H. Relationship between the inhibition constant (Ki) and the concentration of the inhibitor that causes 50 percent inhibition (IC50) of an enzyme reaction. Biochem. Pharmacol. 1973, 22, 3099-3108.] based on the IC50 and the respective Km, determined previously (Ki=IC50/(I+S/Km)). […]

human factor Xa, sequence (P00742 235-488 limits assumed): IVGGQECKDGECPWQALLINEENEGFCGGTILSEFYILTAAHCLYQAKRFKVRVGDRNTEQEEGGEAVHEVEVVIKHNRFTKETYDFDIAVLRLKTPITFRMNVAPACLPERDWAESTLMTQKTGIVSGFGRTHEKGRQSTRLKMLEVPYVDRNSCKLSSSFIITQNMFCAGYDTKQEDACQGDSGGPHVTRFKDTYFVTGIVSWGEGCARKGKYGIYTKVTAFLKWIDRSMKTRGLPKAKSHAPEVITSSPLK
human factor Xa, sequence (P00742 41-179 partner limits assumed): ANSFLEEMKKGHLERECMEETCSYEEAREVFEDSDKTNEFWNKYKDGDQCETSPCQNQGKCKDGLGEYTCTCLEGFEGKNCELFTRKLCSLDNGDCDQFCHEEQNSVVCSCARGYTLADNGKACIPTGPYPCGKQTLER

Ki: 26 nM
Compound: CN1CCC(N2CCN(C(=O)Cc3csc(NC(=O)c4ccc(Br)s4)n3)CC2)CC1 [Ex. 47.3, 5-bromo-thiophene-2-carboxylic acid (4-{2-[4-(1-methyl-piperidin-4-yl)-piperazin-1-yl]-2-oxo-ethyl}-thiazol-2-yl)-amide]
